Where “and” joins values, the source holds several entries; their conditions need not be identical. Identical values can stand only once.
Key:
[1] = 5-FU induced mucositis assay; format: in vivo, Mice (C57bl/6); conditions: 20 mg/kg IP BID 4 days after second 5-FU injection
Protocol: Mice (C57bl/6) were treated with 150 mg/kg of 5-fluorouracil (5-FU) intraperitoneal (IP) on days 0 and 10. After the second injection of 5-FU, the mice were treated with a compound of Formula (I) (20 mg/kg in saline, IP, BID (i.e. 40 mg/kg per day)) or saline alone (0.15 M NaCl) for 4 days. Mice were then sacrificed and the small intestines were removed and weighed to determine the degree of inflammation. […] FIG. 1B illustrates that intestinal erosion, villous loss, and macrophage infiltration after administration of chemotherapy were ameliorated by concurrent administration of a compound of Formula (I).

[2] = system: sE-selectin; assay: Plasma soluble E-selectin ELISA during treatment; format: in vivo, human; conditions: individual subjects; for sE-selectin AUEC Day 3 / sE-selectin AUEC Day 8 / sE-selectin AUEC Percent Change from Day 1, Day 3 / sE-selectin AUEC Percent Change from Day 1, Day 8: with MEC
Protocol: Plasma sE-selectin was quantified using a commercially available sandwich format ELISA assay, in which a monoclonal antibody specific for sE-selectin has been pre-coated onto a microplate (Human sE-Selectin Platinum ELISA kit, eBioscience, cat. no. BMS205). Standards, samples and controls were pipetted into the wells of the microplate where they bind to the antibodies coated on the microplate. After a wash step, an HRP-conjugated anti-human sE-selectin antibody was added to the wells to bind the sE-selectin captured by the first antibody. After washing the plate wells to remove unbound HRP-conjugated anti-human sE-selectin antibody, a substrate solution reactive with HRP is added to the wells. Colored product formed in proportion to the amount of human sE-selectin present in the sample or standard. The color-producing reaction was stopped by addition of acid and absorbance of each well was measured at 450 nm. Six human serum samples from healthy donors served as the quality control samples. In addition, two control lyophilized plasma samples (high and low) included with the assay kit were also added to each run.
This response was seen both in mean levels and Area-Under-Effect-Curve (“AUEC”). Decrease from baseline to Day 8 (at the end of 6 days of treatment with a compound of Formula (I), given concurrently with MEC chemotherapy) was highly significant (P<0.0001) with no dose response. FIG. 11 illustrates decreasing mean levels of plasma soluble E-selectin over the treatment period in all dose groups, where doses were BID (i.e., the 5, 10, and 20 mg/kg “Per Dose” amounts of a compound of Formula (I) correspond to dosages of 10, 20, and 40 mg/kg per day, respectively).

CC[C@@H]1CC(C(=O)NCCNC(=O)CCOCCOCCOCCOCCOCCOCCOCCOCCOCCOCCOCCOC)C[C@@H](O[C@@H]2O[C@@H](CO)[C@H](O)C(O[C@@H](CC3CCCCC3)C(=O)O)C2NC(C)=O)C1OC1O[C@@H](C)C(O)[C@H](O)[C@@H]1O (some centres unmarked) [compound of Formula (I)]
gastrointestinal mucositis as measured by intestinal weight [1]: protects against chemotherapy induced gastrointestinal mucositis | intestinal erosion, villous loss, and macrophage infiltration [1]: ameliorated | sE-selectin AUEC Day 1 ([2]; 5 mg/kg per dose): 563.47 hrxng/mL and 1,605.18 hrxng/mL and 339.27 hrxng/mL and 328.40 hrxng/mL | sE-selectin AUEC Day 3 ([2]; 5 mg/kg per dose): 494.30 hrxng/mL and 1,445.26 hrxng/mL and 275.71 hrxng/mL and 332.11 hrxng/mL | sE-selectin AUEC Day 8 ([2]; 5 mg/kg per dose): 440.68 hrxng/mL and 728.47 hrxng/mL and 156.25 hrxng/mL and 161.11 hrxng/mL | sE-selectin AUEC Percent Change from Day 1, Day 3 ([2]; 5 mg/kg per dose): −12.28% and −9.96% and −18.74% and 1.13% | sE-selectin AUEC Percent Change from Day 1, Day 8 ([2]; 5 mg/kg per dose): −21.79% and −54.62% and −53.95% and −50.94% | sE-selectin AUEC Day 1 ([2]; 10 mg/kg per dose): 338.36 hrxng/mL and 707.63 hrxng/mL and 325.19 hrxng/mL and 269.90 hrxng/mL and 230.35 hrxng/mL | sE-selectin AUEC Day 3 ([2]; 10 mg/kg per dose): 313.04 hrxng/mL and 981.09 hrxng/mL and 298.31 hrxng/mL and 202.99 hrxng/mL and 185.98 hrxng/mL | sE-selectin AUEC Day 8 ([2]; 10 mg/kg per dose): 168.71 hrxng/mL and 218.03 hrxng/mL and 25.51 hrxng/mL and 103.74 hrxng/mL and 158.91 hrxng/mL | sE-selectin AUEC Percent Change from Day 1, Day 3 ([2]; 10 mg/kg per dose): −7.48% and 38.64% and −8.26% and −24.79% and −19.26% | sE-selectin AUEC Percent Change from Day 1, Day 8 ([2]; 10 mg/kg per dose): −50.14% and −69.19% and −92.15% and −61.57% and −31.01% | sE-selectin AUEC Day 1 ([2]; 20 mg/kg per dose): 2,206.19 hrxng/mL and 750.41 hrxng/mL and 202.19 hrxng/mL | sE-selectin AUEC Day 3 ([2]; 20 mg/kg per dose): 1,743.61 hrxng/mL and 632.82 hrxng/mL and 163.18 hrxng/mL | sE-selectin AUEC Day 8 ([2]; 20 mg/kg per dose): 956.57 hrxng/mL and 294.47 hrxng/mL and 31.49 hrxng/mL | sE-selectin AUEC Percent Change from Day 1, Day 3 ([2]; 20 mg/kg per dose): −20.97% and −15.67% and −19.30% | sE-selectin AUEC Percent Change from Day 1, Day 8 ([2]; 20 mg/kg per dose): −56.64% and −60.76% and −84.43%

Reference: US11707474B2, “Methods for treating acute myeloid leukemia and related conditions” (GlycoMimetics, Inc., priority 2018, dated 2023)
